Results reported in patent US7838562B2, “Methods of inhibiting vascular permeability and apoptosis” (University of Connecticut, priority 2004, dated 2010).
Where two headings read alike, the source gives them in different places.

Experiments:
[1] = test system: phospho-Akt; assay: Western blot of Akt phosphorylation in HUVEC; format: cell-based, human; details: for increase in Akt phosphorylation levels: 100 nM, after 5 minutes; for time of maximum Akt phosphorylation levels: data not shown; for Akt phosphorylation with Pertussis toxin: incubation with Pertussis toxin
From the text: (§1) Endothelial cell morphogenesis, a phenomenon that requires endothelial cell migration, survival and adherens junction assembly, is mediated by the ligand-dependent activation of S1P1 and S1P3 receptors. […] The effects of FTY720-P and analogs on Akt and ERK phosphorylation in HUVEC were studied in a Western blot analysis. Confluent cultures of HUVEC cells were serum starved for two hours in 0.1% ffa-BSA M199 before treatments. Then, they were washed with ice-cold phosphate buffered saline (PBS) containing 1 mM sodium fluoride and 1 mM sodium orthovanadate and homogenized in radioimmunoprecipitation assay buffer (0.1% sodium dodecyl sulfate (SDS), 0.5% sodium deoxycholate, 1% NP-40, 1 mM sodium orthovanadate, 50 mM β-glycerophosphate and 1× protease inhibitor cocktail). Samples were centrifuged 10,000×g for 10 minutes, and protein concentrations of supernatants were determined by Bradford assay (BioRad Protein Dye Reagent). Equal amounts of protein were separated on a 10% polyacrylamide gel and blotted to a nitrocellulose membrane. Immunoblot analysis was performed using Phospho-Akt, Akt, phospho-ERK1/2 or ERK-1/2 antibodies.

[2] = test system: phospho-ERK-1/2; assay: Western blot of ERK-1/2 phosphorylation in HUVEC; format: cell-based, human; details: for increase in ERK-1/2 phosphorylation levels: 100 nM, after 5 minutes; for time of maximum ERK phosphorylation levels: data not shown; for ERK-1 and ERK-2 phosphorylation with Pertussis toxin: incubation with Pertussis toxin
From the text: as §1

[3] = test system: VE-cadherin; assay: VE-cadherin localization by immunofluorescence in HUVEC; format: cell-based, human; details: 30 minutes; 10 nM (S1P 100 nM)
Protocol: The effects of FTY720-P and (R)-AFD on the localization of VE-cadherin were studied using immunofluorescence analysis. In this study, 2×10^5 cells were plated in 35 millimeter glass bottom petri dishes. Three days later, the cells were washed and serum starved for 3 hours before treatments. Then, the cells were washed with ice-cold PBS, fixed, and immunofluorescence analysis with VE-cadherin antibody was conducted (1 μg/ml Santa Cruz). The primary antibody staining was visualized with Rhodamine-conjugated goat anti-mouse (1:1000, Cappel) IgG. Confocal microscopy was conducted on a Zeiss LSM 510 laser-scanning confocal microscope. Rhodamine fluorescence was excited using a 543 nm Helium/Neon laser and emitted fluorescence was detected with a […] long-pass filter.

[4] = molecular target: T1, SK2 (Mus musculus, UniProt Q9JIA7)
T1 sequence (Q9JIA7 1-617): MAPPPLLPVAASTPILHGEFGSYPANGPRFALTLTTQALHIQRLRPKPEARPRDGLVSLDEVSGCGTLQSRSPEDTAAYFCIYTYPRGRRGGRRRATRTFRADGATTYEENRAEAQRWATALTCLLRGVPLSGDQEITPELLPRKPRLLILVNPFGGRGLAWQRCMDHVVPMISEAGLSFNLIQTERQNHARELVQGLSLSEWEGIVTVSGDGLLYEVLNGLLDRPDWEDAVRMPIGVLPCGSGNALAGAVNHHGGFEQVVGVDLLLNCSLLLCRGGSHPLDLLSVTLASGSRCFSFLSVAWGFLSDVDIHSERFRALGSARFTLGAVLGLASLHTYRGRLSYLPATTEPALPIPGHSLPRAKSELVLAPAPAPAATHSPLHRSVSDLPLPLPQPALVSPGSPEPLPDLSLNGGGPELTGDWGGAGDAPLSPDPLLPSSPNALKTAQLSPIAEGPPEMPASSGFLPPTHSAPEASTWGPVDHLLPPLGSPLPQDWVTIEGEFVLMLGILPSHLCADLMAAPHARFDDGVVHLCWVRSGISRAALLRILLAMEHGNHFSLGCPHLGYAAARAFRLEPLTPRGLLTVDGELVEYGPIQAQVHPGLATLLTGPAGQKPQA

[5] = test system: HUVEC; assay: HUVEC migration (96 well chemotaxis microchamber); details: for migration induced by conditioned medium: compound incubated with HUVEC for 3 hours, conditioned medium used as chemoattractant; for induction of endothelial cell migration: compound used directly as chemoattractant, 4 hours; for fold induction at 0.01 µM: read-out: migration, fold induction at maximum effect; for induced migration in presence of Pertussis toxin: Pertussis toxin 200 ng/mL
Protocol: Briefly, polycarbonate filters with a pore size of 8 micrometers (μm) were coated with 5 micrograms per milliliter (μg/ml) fibronectin. […] Approximately 5×10^4 cells suspended in M199 with 0.1% bovine serum albumin were placed in the upper compartment. The cells were allowed to migrate for 4 hours at 37° C. in a humidified chamber with 5% CO2. After the incubation period, the filter was removed, and cells were stained in 0.1% crystal violet and eluted with 10% acetic acid in 96-well plates.
After incubation, conditioned medium was removed, centrifuged at 1,000×g for 10 minutes, and used in the migration assay.

[6] = test system: VEGF-induced vascular permeability; assay: mouse ear microvascular permeability assay (VEGF-induced); format: in vivo, FVB/N mice; details: mice, single oral administration (gavage, 50 μg) 5 hours prior
Protocol: The role of plasma borne FTY720-P or (R)-AFD in the regulation of vascular permeability was tested in vivo. In order to test this possibility, an in vivo vascular permeability model was used in FTY720, (R)-AFD or (S)-AAL-pretreated mice. […] Five hours post-gavage, animals were anesthetized with 2% Avertin™ (0.5 cc/20 g) and infused through the tail vein with 100 μl FITC-dextran (5 mg/ml, 165 kDa). Animals were placed on a warming table under a fluorescent dissecting microscope (Zeiss STV11, Zeiss, Inc.) and the central vessels in the ear were imaged. Control saline or mouse vascular endothelial growth factor (mVEGF, 10 ng/ml) was injected subdermally into the middle ear using a 30 gauge needle (30 μl). Ear vasculature was then imaged with fixed exposure times in a stationary position from 5 minutes to 120 minutes post-injection. Fluorescence images were then quantified using pixel-based threshold in ImageProPlus (Media Cybernetics, Inc.) and quantified.

[7] = test system: kinase activity present in HUVEC (sphingosine kinase); assay: in vitro kinase assay with total cell extract from HUVEC; format: biochemical, human
Protocol: To confirm that FTY720 and (R)-AAL are phosphorylated by endothelial cells, an in vitro kinase assay was performed with both total cell extract and conditioned medium from HUVEC. […] Cells were scraped at 4° C. with 400 μl of 25 mM HEPES pH 7.5, […], 1× protease inhibitor mixture, and disrupted by brief sonication. Cellular homogenates were centrifuged for 10 minutes, 4° C. at 20,000×g. In the kinase assay, 300 μl of conditioned medium (derived from 5×10^5 cells for 3 hours of incubation) or 10 μg of total cell extract from HUVEC were used as a source of kinase activity. […] Lipids were extracted and samples were resuspended in 50 μl of chloroform. Lipids were resolved by TLC on Silica Gel G60 using 1-butanol/acetic acid/water (60/20/20 volume/volume) buffer and quantified with a PhosphorImager (Molecular Dynamics).

[8] = test system: Mouse embryonic endothelial cells; assay: VEGF-induced paracellular permeability (Transwell, FITC-dextran); format: cell-based; details: 100 nM, 1 hr pretreatment, 45 minute time point, VEGF 50 ng/ml
Protocol: Several studies have shown that VE-cadherin could be an important determinant of vascular permeability. […] A cellular system was used to assess the effects of S1P, FTY720-P and (R)-AFD on vascular permeability. Mouse embryonic endothelial cells (5×10^4) were cultured for 2 days in Transwell polycarbonate filters (6.5 mm diameter, 0.4 μm pores; Costar). Culture medium was replaced with serum/phenol red-free DMEM (HEPES buffer, L-glutamine, and pyridoxine hydrochloride) (0.1 mL upper chamber and 0.6 mL lower chamber). […] FITC-dextran (average MW=2,000 kDa), was added to the upper compartment either in the absence or presence of murine recombinant VEGF (50 ng/ml). Media from lower wells were taken after indicated time periods (5-45 minutes). Samples were placed in black solid bottom 96 well plates (Costar) and fluorescence intensities were measured using CytoFluor(R) fluorescence multi-well plate reader (Applied Biosystems) at 488 nm excitation. Data=mean±SE of duplicates. N=2. *p<0.01 VEGF vs. untreated. #p<0.01 treatments+VEGF vs. VEGF alone.

[9] = test system: HUVEC; assay: apoptosis induced by serum deprivation in HUVEC (DNA fragmentation); format: cell-based, human; details: for Emax at 0.01 µM: Homo sapiens, HUVEC, 10 nM, 8 hours serum deprivation, read-out: inhibition of DNA fragmentation (maximum effect); for anti-apoptotic effect with Pertussis toxin: Pertussis toxin treatment
Protocol: Since ERK-1 and ERK-2 activation is necessary for the survival effect of S1P in endothelial cells, it was tested if FTY720-P and its analog (R)-AFD could prevent apoptosis induced by serum deprivation in HUVEC. In this test, HUVEC cells were labeled with {methyl-^3H}-thymidine (1 μCi/ml) for 16 hours. Then, they were washed and 0.1% ffa-BSA M199 containing the different treatments was added. After 8 hours, fragmented DNA was solubilized and quantified as described.

With CCCCCCCOc1ccc(CC[C@@](C)(N)CO)cc1 (stereo in doubt) [AAL, 2-amino-2-methyl-4-[4-heptoxy-phenyl]butane-1-ol] the “Akt phosphorylation (in words)” value [1] was “did not induce phospho-Akt or phospho-ERK-1/2 levels” and the “ERK-1/2 phosphorylation (in words)” value [2] was “did not induce phospho-Akt or phospho-ERK-1/2 levels”.
For CCCCCCCOc1ccc(CC[C@@](C)(N)CO)cc1 [(R)-AAL, 2-amino-2-methyl-4-[4-heptoxy-phenyl]butane-1-ol], the “VE-cadherin localization at cell-cell contact regions / translocation to adherens junctions” value [3] was “did not induce VE-cadherin translocation to the adherens junctions”, the “specific activity (phosphorylation of the substrate)” value ([4]; SK2-[…]T, 100 μM FTY720 or (R)-AAL, 20 μM sphingosine) was 199.5 pmol/min/mg and the “migration induced by conditioned medium” value [5] was “activated into potent chemoattractants for endothelial cells”. For the same compound, the “induction of endothelial cell migration” value [5] was “Neither FTY720 nor its structural analog (R)-AAL induced endothelial cell migration”, the “inhibition of vascular permeability induced by VEGF” value [6] was “potently inhibited vascular permeability in vivo” and the “specific activity (phosphorylation of the substrate)” value ([7]; HUVEC total cell extract, 100 μM FTY720 or AAL, 20 μM sphingosine, 30 minutes) was 15 ± 0.93 pmol/mg/min.
CCCCCCCOc1ccc(CC[C@@](C)(N)COP(=O)(O)O)cc1 [(R)-AFD] was tested, and the “inhibition of VEGF-induced paracellular permeability” value [8] was “profoundly inhibited”, the “increase in Akt phosphorylation levels” value [1] was 4.5 fold and the “Akt phosphorylation (in words)” value ([1]; 5 minute stimulation) was “higher than the one induced by S1P”. The “time of maximum Akt phosphorylation levels” value [1] was 5 min, the “Akt phosphorylation with Pertussis toxin” value [1] was “blocked by incubation with Pertussis toxin” and the “VE-cadherin localization at cell-cell contact regions / translocation to adherens junctions” value [3] was “increase in VE-cadherin localization at the cell-cell contact regions”. The “increase in ERK-1/2 phosphorylation levels” value [2] was 8.2 fold, the “ERK-1/2 phosphorylation (in words)” value ([2]; 5 minute stimulation) was “higher than the one induced by S1P” and the “time of maximum ERK phosphorylation levels” value [2] was 5 min. For the same compound, the “ERK-1 and ERK-2 phosphorylation with Pertussis toxin” value (from here on “ERK-1 and ERK-2 phosphorylation”) [2] was “blocked by incubation with Pertussis toxin”, the “concentration of maximum anti-apoptotic effect” value [9] was 10 nM and the Emax at 0.01 µM [9] was roughly 70%. For the same compound, the “anti-apoptotic effect with Pertussis toxin” value [9] was “blocked by Pertussis toxin treatment”, the “concentration of maximum effect on migration” value [5] was 10 nM and the fold induction at 0.01 µM ([5]; Homo sapiens, HUVEC) was 9. For the same compound, the “induced migration in presence of Pertussis toxin” value [5] was “blocked by Pertussis toxin” and the “induction of endothelial cell migration” value [5] was “potent chemoattractants for HUVEC”.
With CCCCCCCOc1ccc(CC[C@](C)(N)CO)cc1 [(S)-AAL, 2-amino-2-methyl-4-[4-heptoxy-phenyl]butane-1-ol] the “phosphorylation of the substrate” value ([4]; SK2-[…]T extract, 100 μM) was “barely detectable”, the “migration induced by conditioned medium” value [5] was “did not induce migration after incubation with endothelial cells” and the “inhibition of vascular permeability induced by VEGF” value [6] was “but not (S)-AAL also potently inhibited vascular permeability in vivo”. For the same compound, the “phosphorylation of the substrate” value ([7]; HUVEC kinase activity, 100 μM) was “undetectable”.
With CCCCCCCCc1ccc(CCC(N)(CO)COP(=O)(O)O)cc1 (stereo not drawn) [FTY720-P] the “inhibition of VEGF-induced paracellular permeability” value [8] was “profoundly inhibited”, the “increase in Akt phosphorylation levels” value [1] was 3.7 fold and the “Akt phosphorylation (in words)” value ([1]; 5 minute stimulation) was “higher than the one induced by S1P”. The “time of maximum Akt phosphorylation levels” value [1] was 5 min, the “Akt phosphorylation with Pertussis toxin” value [1] was “blocked by incubation with Pertussis toxin” and the “VE-cadherin localization at cell-cell contact regions / translocation to adherens junctions” value [3] was “increase in VE-cadherin localization at the cell-cell contact regions”. The “increase in ERK-1/2 phosphorylation levels” value [2] was 9.3 fold, the “ERK-1/2 phosphorylation (in words)” value ([2]; 5 minute stimulation) was “higher than the one induced by S1P” and the “time of maximum ERK phosphorylation levels” value [2] was 5 min. The “ERK-1 and ERK-2 phosphorylation” value [2] was “blocked by incubation with Pertussis toxin”, the “concentration of maximum anti-apoptotic effect” value [9] was 10 nM and the Emax at 0.01 µM [9] was roughly 70%. For the same compound, the “anti-apoptotic effect with Pertussis toxin” value [9] was “blocked by Pertussis toxin treatment”, the “concentration of maximum effect on migration” value [5] was 10 nM and the fold induction at 0.01 µM ([5]; Homo sapiens, HUVEC) was 13. For the same compound, the “induced migration in presence of Pertussis toxin” value [5] was “blocked by Pertussis toxin” and the “induction of endothelial cell migration” value [5] was “potent chemoattractants for HUVEC”.
In the case of CCCCCCCCCCCCC/C=C/[C@@H](O)[C@@H](N)COP(=O)(O)O [S1P, Sphingosine-1-phosphate, reference compound], the “inhibition of VEGF-induced paracellular permeability” value [8] is reported as “profoundly inhibited”, the “time of maximum Akt phosphorylation levels” value [1] is reported as 5 min and the “Akt phosphorylation with Pertussis toxin” value [1] is reported as “blocked by incubation with Pertussis toxin”. The “VE-cadherin localization at cell-cell contact regions / translocation to adherens junctions” value [3] was “comparable to that observed for S1P”, the “time of maximum ERK phosphorylation levels” value [2] was 5 min and the “ERK-1 and ERK-2 phosphorylation” value [2] was “blocked by incubation with Pertussis toxin”. For the same compound, the “anti-apoptotic effect with Pertussis toxin” value [9] was “blocked by Pertussis toxin treatment” and the fold induction at 0.1 µM ([5]; Homo sapiens, HUVEC, read-out: migration, fold induction) was 14.
